Experimental data reported in patent US20240174618A1, “SUBSTITUTED (2-HETEROARYLOXYPHENYL)SULFONATES, SALTS THEREOF AND THEIR USE AS HERBICIDAL AGENTS” (Bayer Aktiengesellschaft, priority 2021, published 2024).

How the values were obtained:
Format in all cases: in vivo
Veronica persica (VERPE) = assay: E. Herbicidal post-emergence efficacy, VERPE
Description: (§1) Seeds of monocotyledonous and dicotyledonous weeds and crop plants were placed in sandy loam in plastic or organic planting pots, covered with soil and cultivated in a greenhouse under controlled growth conditions. 2 to 3 weeks after sowing, the test plants were treated at the one-leaf stage. The compounds of the invention, formulated in the form of wettable powders (WP) or as emulsion concentrates (EC), were then sprayed onto the green parts of the plants as aqueous suspension or emulsion with addition of 0.5% additive at a water application rate of 600 l/ha (converted). After the test plants had been kept in the greenhouse under optimum growth conditions for about 3 weeks, the activity of the preparations was rated visually in comparison to untreated controls.
(§2) For example, • 100% efficacy=plants have died, • 0% action=like untreated control plants.
(§3) Tables E1a to E12b below show the effects of selected compounds of the general formula (I) according to table 1 on various harmful plants at an application rate corresponding to 320 g/ha or less, which were obtained by the experimental procedure mentioned above.

Brassica napus (BRSNW) = assay: D. Pre-emergence effect on useful plants, BRSNW; conditions: useful plant
Excerpt: (§4) Seeds of monocotyledonous and dicotyledonous weed plants and crop plants were placed in plastic or organic planting pots and covered with soil. The compounds of the invention, formulated in the form of wettable powders (WP) or as emulsion concentrates (EC), were then applied to the surface of the covering soil as aqueous suspension or emulsion with addition of 0.5% additive at a water application rate equivalent to 600 l/ha (converted). After the treatment, the pots were placed in a greenhouse and kept under good growth conditions for the test plants. After about 3 weeks, the efficacy of the preparations was scored visually in comparison with untreated controls as percentages. For example, • 100% efficacy=plants have died, • 0% efficacy=like untreated control plants.
(§5) Tables D1a to D5b below show the effects of selected compounds of the general formula (I) according to table 1 on various useful plants at an application rate corresponding to 320 g/ha or less, which were obtained by the experimental procedure mentioned above.

Kochia scoparia (KCHSC) [1] = assay: C. Herbicidal pre-emergence efficacy, KCHSC
Excerpt: as §4
(§6) Tables C1a to C14b below show the effects of selected compounds of the general formula (I) according to table 1 on various harmful plants at an application rate corresponding to 320 g/ha or less, which were obtained by the experimental procedure mentioned above.

Kochia scoparia (KCHSC) [2] = assay: E. Herbicidal post-emergence efficacy, KCHSC
Description: as §1, §2, §3

[3] = tested on: Triticum aestivum (TRZAS); assay: F. Post-emergence effect on useful plants, TRZAS; conditions: useful plant, application rate 80 g/ha
Description: as §1, §2
Tables F1a to F4 below show the effects of selected compounds of the general formula (I) according to table 1 on various useful plants at an application rate corresponding to 320 g/ha or less, which were obtained by the experimental procedure mentioned above.

Viola tricolor (VIOTR) [4] = assay: C. Herbicidal pre-emergence efficacy, VIOTR; conditions: application rate 320 g/ha
Excerpt: as §4, §6

[5] = tested on: Amaranthus retroflexus (AMARE); assay: C. Herbicidal pre-emergence efficacy, AMARE; conditions: scored after about 3 weeks
Excerpt: as §4, §6

[6] = tested on: Amaranthus retroflexus (AMARE); assay: E. Herbicidal post-emergence efficacy, AMARE
Description: as §1, §2, §3

Zea mays (ZEAMX) = assay: D. Pre-emergence effect on useful plants, ZEAMX; conditions: useful plant
Excerpt: as §4, §5

[7] = tested on: Pharbitis purpurea (PHBPU); assay: E. Herbicidal post-emergence efficacy, PHBPU
Description: as §1, §2, §3

[8] = tested on: Triticum aestivum (TRZAS); assay: D. Pre-emergence effect on useful plants, TRZAS; conditions: useful plant
Excerpt: as §4, §5

Viola tricolor (VIOTR) [9] = assay: E. Herbicidal post-emergence efficacy, VIOTR
Description: as §1, §2, §3

Setaria viridis (SETVI) = assay: C. Herbicidal pre-emergence efficacy, SETVI; conditions: 320 g/ha, scored after about 3 weeks
Excerpt: as §4, §6

[10] = tested on: Abutilon theophrasti (ABUTH); assay: E. Herbicidal post-emergence efficacy, ABUTH; conditions: application rate 320 g/ha
Description: as §1, §2, §3

[11] = tested on: Digitaria sanguinalis (DIGSA); assay: C. Herbicidal pre-emergence efficacy, DIGSA; conditions: 320 g/ha, scored after about 3 weeks
Excerpt: as §4, §6

Glycine max (GLXMA) = assay: D. Pre-emergence effect on useful plants, GLXMA; conditions: useful plant
Excerpt: as §4, §5

[12] = tested on: Matricaria inodora (MATIN); assay: C. Herbicidal pre-emergence efficacy, MATIN; conditions: 320 g/ha, scored after about 3 weeks
Excerpt: as §4, §6

Pre-emergence efficacy against BRSNW in % (Brassica napus (BRSNW); application rate 80 g/ha) | Post-emergence efficacy against TRZAS in % [3] | Pre-emergence efficacy against ZEAMX in % (Zea mays (ZEAMX); application rate 80 g/ha) | Pre-emergence efficacy against TRZAS in % ([8]; application rate 80 g/ha) | Pre-emergence efficacy against TRZAS in % ([8]; application rate 320 g/ha) | SMILES | Post-emergence efficacy against VERPE in % (Veronica persica (VERPE); application rate 80 g/ha) | Post-emergence efficacy against VERPE in % (Veronica persica (VERPE); application rate 320 g/ha) | Pre-emergence efficacy against KCHSC in % (Kochia scoparia (KCHSC) [1]; application rate 320 g/ha) | Post-emergence efficacy against KCHSC in % (Kochia scoparia (KCHSC) [2]; application rate 80 g/ha) | Post-emergence efficacy against KCHSC in % (Kochia scoparia (KCHSC) [2]; application rate 320 g/ha) | Pre-emergence efficacy against VIOTR in % (Viola tricolor (VIOTR) [4]) | Pre-emergence efficacy against AMARE ([5]; 80 g/ha) | Pre-emergence efficacy against AMARE ([5]; 320 g/ha) | Post-emergence efficacy against AMARE in % ([6]; application rate 80 g/ha) | Post-emergence efficacy against AMARE in % ([6]; application rate 320 g/ha) | Post-emergence efficacy against PHBPU in % ([7]; application rate 320 g/ha) | other results
20% | 0% | 0% | 0% | 0% | N#Cc1cccc(Oc2ncc(Cl)cn2)c1OS(=O)(=O)CC1CC1(Cl)Cl (centres unmarked) [Example I-78] | 100% | 100% | 100% | 100% | 100% | 100% | 100% | 100% | 90% | 100% | 100% | Pre-emergence efficacy against KCHSC in % (Kochia scoparia (KCHSC) [1]; application rate 80 g/ha): 100%; Pre-emergence efficacy against ZEAMX in % (Zea mays (ZEAMX); application rate 320 g/ha): 20%; Post-emergence efficacy against PHBPU in % ([7]; application rate 80 g/ha): 90%; Post-emergence efficacy against VIOTR in % (Viola tricolor (VIOTR) [9]; application rate 80 g/ha): 90%; Post-emergence efficacy against VIOTR in % (Viola tricolor (VIOTR) [9]; application rate 320 g/ha): 100%
0% | 0% | 0% | 0% | 10% | O=S(=O)(CC=C(Cl)Cl)Oc1c(F)cccc1Oc1ncc(Cl)cn1 [Example I-85] | 100% | 100% | 100% | 80% | 100% | 80% | 100% | 100% | 90% | 100% | 90% | Pre-emergence efficacy against BRSNW in % (Brassica napus (BRSNW); application rate 320 g/ha): 0%; Pre-emergence efficacy against SETVI (Setaria viridis (SETVI)): 90%; Post-emergence efficacy against ABUTH in % [10]: 80%; Pre-emergence efficacy against DIGSA [11]: 100%; Pre-emergence efficacy against GLXMA in % (Glycine max (GLXMA); application rate 80 g/ha): 0%; Pre-emergence efficacy against GLXMA in % (Glycine max (GLXMA); application rate 320 g/ha): 0%; Pre-emergence efficacy against MATIN [12]: 80%
